Data on three compounds can be found in patent publication US8344115B2, “Immunoassay for specific determination of S-adenosylmethionine and analogs thereof in biological samples” (priority 2008, dated 2013).

In the assay the test system is Rabbit antiserum (raised against AdaM-BSA). In words: Assay 1: end point competitive ELISA with rabbit antibody and antibody specificity (goat anti-rabbit strips, AdaM-HRP conjugate). In kind it is binding. The note with it: rabbit antiserum 1:12,500, duplicate. How it is done: New Zealand White rabbits were used for polyclonal antibody production. Immunization (1 ml total volume) was carried out with subcutaneous injections at multiple sites. Initial injection utilizes 1:1 mixture of complete Freund Adjuvant and AdaM-BSA conjugate solution in PBS upon emulsification. Subsequent injections use incomplete Freund adjuvant. The immunization was on 21 days cycle schedule, the animals were bleed from the ear artery (rabbit sedated) between 7 to 14 days after injection, normally on the 10th day. The blood was then processed to serum via centrifugation to remove red blood cells and clots. Immune response was detected after three booster injections. See FIG. 1 for a typical positive antibody response (indicated by antibody titer determination) wherein NA005 and 006 are animal designation numbers, 0 represents pre-bleed, 1 represents the first bleed after 4 immunizations.
4-1. Assay 1 Assay (End Point) with Rabbit Antibody and Antibody Specificity
• 1. Goat anti-rabbit coated microtiter well strips. • 2. —Rabbit antiserum diluted in incubation buffer (IB: 10 mM phosphate, 150 mM NaCl, 0.2% BSA, 0.1% Tween 20, 0.1% Proclin, pH 7.4) • 3. An IB+Tris (100 mM) buffer, pH 8.5 • 4. Samples: • (a) SAMe toluenesulfonate (tosylate) disulfate at concentration from […] to 1.4×10^−5 M in IB containing BSA 0.5%, and use 0.5% BSA-IB as zero sample. • (b) SAH at concentration from zero and 1.4×10^−8 to 1.4×10^−4 M. • (c) Adenosine at concentration from zero and 5.6×10^−9 M. to 5.6×10^−5 M • (d) Guanosine at concentration from zero and 3.0×10^−9 M to 3.0×10^−5 M • 5. AdaM-HRP conjugate (diluted to HRP concentration @30 μg/mL) in IB. • 6. —HRP substrate: one reagent substrate solution NeA-blue Tetramethylbenzidine Substrate, Clinical Science Products, Inc., Mansfield, Mass. • 7. 1N phosphoric acid Procedure: • 1. —The rabbit antiserum was diluted 1:12,500 in IB and pre-incubated (60 μl/well) in goat-antirabbit coated strips for at least one hour. • 2. Excess antibody was then decanted, washed, and blot dry. • 3. To each well was then added 10 μl of the pH 8.5 IB+Tris buffer followed by 25 μl of samples. The mixture was incubated on a orbital shaker for 25 min. All samples were tested in duplicate except the zero sample, in 6 wells. • 4. Twenty five microliter (25 μl) of AdaM-HRP conjugate solution was then added and incubated for additional 25 min with shaking. • 5. The assay mixture was then decanted, washed, and blot dry. • 6. To each well was added 60 μl/well of HRP substrate and incubate for 15 min. • 7. Stop the substrate development with 120 μl/well of 1N phosphoric acid. • 8. Read OD450 on a Perkin Elmer Lambda (microtiter plate) Reader. Results: (See Table 1 below)
In general terms: In an ELISA, binding on a coated surface is turned into a signal by an enzyme label.

As to `Nc1ncnc2c1ncn2[C@@H]1O[C@H](CO)[C@@H](O)[C@H]1O` [Adenosine], the OD450 reads like this: (sample concentration 5.6E−5 (M)) 0.256; (sample concentration 5.6E−6 (M)) 0.300; (sample concentration 5.6E−7 (M)) 0.305; (sample concentration 5.6E−8 (M)) 0.339; (sample concentration 5.6E−9 (M)) 0.342.
`Nc1nc2c(ncn2[C@@H]2O[C@H](CO)[C@@H](O)[C@H]2O)c(=O)[nH]1` [Guanosine] gave an OD450 (sample concentration 3.0E−5 (M)) of 0.371; an OD450 (sample concentration 3.0E−6 (M)) of 0.383; an OD450 (sample concentration 3.0E−7 (M)) of 0.374; an OD450 (sample concentration 3.0E−8 (M)) of 0.324; an OD450 (sample concentration 3.0E−9 (M)) of 0.350.
For `Nc1ncnc2c1ncn2[C@@H]1O[C@H](CSCC[C@H](N)C(=O)O)[C@@H](O)[C@H]1O` [SAH, S-Adenosylhomocysteine], the OD450 is, setting by setting: (sample concentration 1.4E−4 (M)) 0.209; (sample concentration 1.4E−5 (M)) 0.244; (sample concentration 1.4E−6 (M)) 0.293; (sample concentration 1.4E−7 (M)) 0.323; (sample concentration 1.4E−8 (M)) 0.337.
